{"source": "patent US12612386B2", "about": "“Heteroaryl-triazole compounds as pesticides” (Bayer Aktiengesellschaft, priority 2020, dated 2026)", "assay_type_in_all_cases": "in vivo", "key": {"[1]": {"system": "adult brown dog ticks (Rhipicephalus sanguineus)", "experiment": "Rhipicephalus sanguineus in-vitro contact test, adult brown dog ticks", "details": "48 h, read-out: efficacy (ticks dead or moribund)", "summary_of_the_method": "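Compound in acetone was coated onto inner walls of glass tubes by rotation (2 h, 30 rpm); 900 ppm gives 5 μg/cm^2. After drying, 5-10 adult ticks were enclosed per tube at room temperature; after 48 h, heat-escape test at 45-50° C scored dead/moribund ticks as % efficacy.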"}, "[2]": {"system": "engorged adult female cattle ticks (Rhipicephalus microplus) strain Parkhurst, SP-resistant", "experiment": "Rhipicephalus (Boophilus) microplus dip test", "details": "100 ppm, egg deposition after 7 days", "experimental": "Rhipicephalus (Boophilus) Microplus—Dip Test\nTest animal: cattle ticks (Rhipicephalus microplus) strain Parkhurst, SP-resistant\n(§1) Solvent: dimethyl sulfoxide\nTo produce a suitable preparation of active compound, 10 mg of active compound are dissolved in 0.5 mL solvent, and the concentrate is diluted with water to the desired concentration.\nThis compound solution is pipetted into tubes. 8-10 engorged, adult, female cattle ticks (Rhipicephalus microplus) are placed in perforated tubes. These tubes are immersed in the aqueous compound solution until the ticks are completely moistened. After the liquid has drained off, the ticks are transferred to a filter paper in a plastic tray and stored in a climate chamber.\nAfter 7 days egg deposition of fertile eggs is monitored. Eggs where fertility is not visible are stored in a climate chamber till hatching after about 42 days. An efficacy of 100% means all eggs are infertile; 0% means all eggs are fertile."}, "[3]": {"system": "adult unfed cat fleas (Ctenocephalides felis)", "experiment": "Ctenocephalides felis oral test", "details": "48 h", "experimental": "Ctenocephalides felis—Oral Test\nas §1\nTo produce a suitable preparation of active compound, 10 mg of active compound are dissolved in 0.5 mL solvent, and the concentrate is diluted with citrated cattle blood to the desired concentration.\nApproximately 20 adult unfed cat fleas (Ctenocephalides felis) are placed in a flea chamber whose top and bottom is covered with gauze. A chamber whose bottom is sealed with parafilm, is filled with the blood-compound solution and placed on top of the flea chamber, so that the fleas can suck the blood. The blood chamber is heated to 37° C. whereas the flea chamber is kept at room temperature.\nAfter 2 days mortality in % is determined. 100% means all the fleas have been killed; 0% means none of the fleas have been killed."}, "[4]": {"system": "green peach aphid (Myzus persicae)", "experiment": "Myzus persicae spray test (MYZUPE)", "details": "120 h, 100 g/ha, after 5 days", "summary_of_the_method": "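Chinese cabbage leaf disks infested with all instars of Myzus persicae were sprayed with compound formulated in acetone/dimethylformamide and diluted in water with 1000 ppm alkylarylpolyglycol ether emulsifier. Percent mortality was scored after 5 days, 100% meaning all aphids killed.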"}, "[5]": {"system": "green peach aphid (Myzus persicae)", "experiment": "whole plant or invertebrate", "details": "120 h", "experimental": "Solvent: 100 parts by weight acetone\nTo produce a suitable preparation of active compound, 1 part by weight of active compound is mixed with the stated amount of solvent, and the concentrate is diluted with water to the desired concentration.\n50 μL compound solution is filled in microtiter plates and 150 μL IPL41 insect medium (33%+15% sugar) is added to obtain a total volume of 200 μL per well. Afterwards the plates are sealed with parafilm through which a mixed population of the green peach aphid (Myzus persicae) can suck on the compound preparation.\nAfter 5 days mortality in % is determined. 100% means all aphids have been killed and 0% means none of the aphids have been killed.\nMyzus persicae—Oral Test (MYZUPE Oral)"}, "[6]": {"system": "larvae of the banded cucumber beetle (Diabrotica balteata)", "experiment": "Diabrotica balteata spray test", "details": "168 h, 100 g/ha (=32 μg/well), after 7 days, read-out: efficacy (seedling growth)", "summary_of_the_method": "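Germinated wheat seeds on agar (5 per well) were sprayed with compound formulated in acetone/DMF and diluted in water with 1000 ppm emulsifier. Each unit was then infested with 10–20 larvae. Efficacy % was scored after 7 days as seedling growth relative to an untreated, uninfested control (100% = normal growth).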"}, "[7]": {"system": "adult flies Musca domestica strain WHO-N", "experiment": "Musca domestica test (MUSCDO surface treatment & contact assay)", "details": "surface concentration 20 mg/m^2, 30 min exposure, 24 hours after contact, read-out: efficacy (mortality)", "experimental": "Musca domestica Test (MUSCDO Surface Treatment & Contact Assay)\nSolvent: Aceton+2000 ppm rapeseed oil methyl ester (RME)\nThis solution is pipetted onto a glazed tile and after evaporation of the acetone, adult flies of the species Musca domestica strain WHO-N are placed onto the dried surface. The exposure time is 30 minutes. Mortality in percent (%) is determined 24 hours after contact of the insects to the treated surface. 100% mortality means that all tested insects are dead, whereas 0% means that no insect died."}, "[8]": {"system": "fall armyworm larvae (Spodoptera frugiperda)", "experiment": "whole plant or invertebrate", "details": "168 h", "summary_of_the_method": "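Maize leaf sections sprayed with compound in acetone/DMF with alkylarylpolyglycol ether emulsifier diluted in water, then infested with fall armyworm larvae once dry. Mortality (%) scored after 7 days; 100% = all caterpillars killed.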"}}}
{"smiles": "C[C@H](NC(=O)c1cc(Br)cc(OC(F)(F)F)c1)c1ncnn1-c1cc(C#N)ncn1", "note": "[I-1, 3-bromo-N-{(1S)-1-[1-(6-cyanopyrimidin-4-yl)-1H-1,2,4-triazol-5-yl]ethyl}-5-(trifluoromethoxy)benzamide]", "values": [{"measurement": "pest or weed control at 5 µg/cm2, 500 g/ha", "setting": "[1]", "value": 100, "unit": "%"}, {"measurement": "efficacy (infertile eggs)", "setting": "[2]", "value": 100, "unit": "%"}, {"measurement": "mortality at 100 ppm", "setting": "[3]", "value": 100, "unit": "%"}, {"measurement": "mortality at 100 g/ha", "setting": "[4]", "value": 90, "unit": "%"}, {"measurement": "mortality at 0.16 ppm", "setting": "[5]; MYZUPE oral, 0.16 ppm, 5 dat (Table 3), read-out: % Efficacy", "value": 100, "unit": "%"}, {"measurement": "mortality at 4 ppm", "setting": "[5]; po", "value": 100, "unit": "%"}, {"measurement": "pest or weed control at 32 µg/disc, 100 g/ha", "setting": "[6]", "value": 80, "unit": "%"}, {"measurement": "mortality at 20 mg/m2", "setting": "[7]", "value": "80 to 100", "unit": "%"}, {"measurement": "mortality at 100 g/ha", "setting": "[8]", "value": 100, "unit": "%"}, {"measurement": "Emax at 20 g/ha", "setting": "[8]; SPODFR, 20 g ai/ha, 7 dat (Table 3), read-out: % Efficacy", "value": 100, "unit": "%"}]}
